# Experimental data: publication PMC4043716 (Drug Design, Development and Therapy, 2014)
# Like-named read-outs stand apart in the source and are kept apart here.
# What was measured:
# [1] = system: NIH3T3 cells; format: cell-based, mouse; settings: 1 μM staurosporine alone, 24 hours
# [2] = format: cell-based; settings: rat, PC12 cells
# [3] = format: cell-based; settings: human, U87MG cells
# [4] = format: cell-based; settings: human, SH-SY5Y cells
# [5] = system: caspase-3/7; assay: Apo-ONE Homogeneous Caspase-3/7 Assay in NIH3T3 cells; format: cell-based, mouse; settings: 1 μM staurosporine alone, 6 hours
# [6] = system: NIH3T3 cells; assay: MTT cell proliferation assay; format: cell-based, mouse; settings: 1 μM staurosporine alone, 24 hours
# [7] = system: NIH3T3 cells; assay: JC-10 mitochondrial membrane potential assay; format: cell-based, mouse; settings: 1 μM staurosporine alone, 6 hours
compound,measurement,setting,value
CN[C@@H]1C[C@H]2O[C@@](C)([C@@H]1OC)n1c3ccccc3c3c4c(c5c6ccccc6n2c5c31)C(=O)NC4 [staurosporine],Cell death,[1],over 90%
same,"viability at 24 h, 1 μM",[2],4%
same,"viability at 24 h, 1 μM",[3],8%
same,"viability at 24 h, 1 μM",[4],6%
same,Caspase activation (caspase-3/7 activity),[5],induced significant caspase activation
same,Cell viability by MTT,[6],reduced the cell viability dramatically
same,Mitochondrial membrane potential,[7],significantly lost mitochondrial membrane potential
